The text below walks through data of patent US20240083917A1, “Polycyclic Kinase Inhibitor” (priority 2021, published 2024).

This test addresses DNA-PK (Homo sapiens (Human), UniProt P78527). Description: In vitro enzymatic activity, ADP-Glo Kinase Assay. The test is classed as biochemical. Particulars: starting concentration 1 μM, 10 concentrations. On the procedure: Test substances: the compounds of the present disclosure, whose structural formulas and preparation methods are shown in the Examples.
1. Preparation of 1-Fold Kinase Buffer
1) The detection starting concentration of the compound was 1 μM, and it was prepared to a 100-fold concentration, namely 100 μM. 2 μl of […] was taken, 198 μl of 100% DMSO was added, and it was prepared into 100 μM compound solution. 100 μl of the compound of 100-fold concentration was added to a second well on a 96-well plate, and 60 μl of 100% DMSO was added to other wells. 30 μl of the compound was taken from the second well and added to a third well, it was diluted downwards sequentially by 3 times, and there was a total of 10 concentrations diluted.
2) 100 μl of 100% DMSO and positive control wortmannin with the highest concentration (400 nM) were transferred to two empty wells as a Max well and a Min well respectively.
3) 50 nl of the compound was transferred to a 384-well plate by Echo.
3. Preparation of 2× Kinase Solution
1) The 1-fold kinase buffer was used to prepare 2-fold DNA-PK kinase solution.
2) 2.5 μl of the 2-fold kinase solution was transferred to a reaction well of the 384-well plate.
3) It was shaken, mixed uniformly, and still placed at a room temperature.
4. Preparation of 2× Substrate Solution
1) The 1-fold kinase buffer was used to prepare 2-fold substrate solution.
2) 2.5 μl of the 2-fold substrate solution was transferred to the reaction well of the 384-well plate for a starting reaction.
3) It was shaken, and mixed uniformly.
5. Kinase Reaction and Termination
1) The 384-well plate was covered by a cover, and incubated at 28° C for 3 hours.
2) 5 μl of ADP-Glo reagent was transferred, and incubated at 28° C. for 2 hours.
6. Detection of Reaction Result
1) 10 μl of a kinase detection reagent was transferred into the reaction well of the 384-well plate for terminating the reaction.
2) It was still placed at the room temperature for 30 minutes.
Sample values were read on Envision.
8. Inhibition Rate Calculation
1) Data was copied from Envision.
2) It was converted into inhibition rate data.
Inhibition percentage=(max-conversion)/(max-min)*100. Wherein, max refers to the conversion rate of a DMSO control, min refers to the conversion rate of a control without enzyme activity, and conversion refers to the conversion rate of the test compound at each concentration.
3) The data was imported into MS Excel and XLFit excel add-in version 5.4.0.8 was used for curve fitting.
For orientation: In ADP-Glo the light output rises with the ADP produced.

What is called IC50 is the concentration that gives 50% inhibition. A lower IC50 goes with greater potency in that assay. Compound `Cc1cc2ncnn2cc1Nc1ncc2c(n1)N1C(=NCC13CCC(O)CC3)N2C` (single isomer, unassigned) [Compound 7-1, 5′-methyl-2′-((7-methyl-[1,2,4]-triazolo[1,5-a]pyridin-6-yl)amino)-5′,7″-dihydrospiro[cyclohexane-1,8′-imidazo[1,2-e]purine]-4-ol] gave an IC50 of 0.62 nM.

With `Cc1cc2ncnn2cc1Nc1ncc2c(n1)N1C(=NCC13CCC(O)CC3)N2C` (single isomer, unassigned) [Compound 7-2, 5′-methyl-2′-((7-methyl-[1,2,4]-triazolo[1,5-a]pyridin-6-yl)amino)-5′,7″-dihydrospiro[cyclohexane-1,8′-imidazo[1,2-e]purine]-4-ol], inhibition was half-maximal at 0.72 nM (IC50).

Consider `COC1CCC2(CC1)CN=C1N(C)c3cnc(Nc4cn5ncnc5cc4C)nc3N12` (single isomer, unassigned) [Compound 16-1, 4-methoxy-5′-methyl-N-(7-methyl-[1,2,4]triazolo[1,5-a]pyridin-6-yl)-5′,7′-dihydrospiro[cyclohexane-1,8′-imidazo[1,2-e]purin]-2′-amine], for which the IC50 was found to be 3 nM.

With `COC1CCC2(CC1)CN=C1N(C)c3cnc(Nc4cn5ncnc5cc4C)nc3N12` (single isomer, unassigned) [Compound 16-2, 4-methoxy-5′-methyl-N-(7-methyl-[1,2,4]triazolo[1,5-a]pyridin-6-yl)-5′,7′-dihydrospiro[cyclohexane-1,8′-imidazo[1,2-e]purin]-2′-amine], the IC50 is 2.2 nM.

Turning to `Cc1cc2ncnn2cc1Nc1ncc2c(n1)N1C(=NCC13CCOCC3)N2C` [Compound 1, 5-methyl-N-(7-methyl-[1,2,4]triazolo[1,5-a]pyridin-6-yl)-2′,3′,5,5′,6′,7-hexanydrospiro[imidazo[1,2-e]purine-8,4′-pyran]-2-amine], half-maximal inhibition (IC50) was put at 0.82 nM.

`Cc1cc2ncnn2cc1Nc1ncc2nc3n(c2n1)C1(CCOCC1)CN3C` [Compound 2, 6-methyl-N-(7-methyl-[1,2,4]triazolo[1,5-a]pyridin-6yl)-2′,3′,5′,6,6′,7-hexahydrospiro[imidazo[1,2-e]purine-8,4′-pyran]-2-amine] yielded an IC50 of 22 nM.

In the case of `Cc1cc2ncnn2cc1Nc1ncc2nc3n(c2n1)C1(CCOCC1)CN3` [Compound 3, N-(7-methyl[1,2,4]-triazolo[1,5-a]pyridin-6-yl)-2′,3′,5′,6,6′,7-hexahydrospiro[imidazo[1,2-e]purine-8,4′-pyran]-2-amine], it took 10.6 nM to reach half-maximal inhibition (IC50).

Consider `Cc1cc2ncnn2cc1Nc1ncc2c(n1)N1C(=NCC13CCCCC3)N2C` [Compound 4, 5′-methyl-N-(7-methyl-[1,2,4]triazolo[1,5-a]pyridin-6-yl)-5′,7′-dihydrospiro[cyclonexane-1,8′-imidazo[1,2-e]purine]-2′-amine], for which the half-inhibitory concentration (IC50) was 0.8 nM.

With `Cc1cc2ncnn2cc1Nc1ncc2c(n1)N1C(=NCC13CCC(F)(F)CC3)N2C` [Compound 5, 4,4-difluoro-5″-methyl-N-(7-methyl-[1,2,4]-triazolo[1,5-a]pyridin-6-yl)-5′,7′-dihydrospiro[cyclohexane-1,8′-imidazo[1,2-e]purine]-2′-amine], the IC50 came to 1.63 nM.

The compound `Cc1cc2ncnn2cc1Nc1ncc2c(n1)N1C(=NCC13CCC(=O)CC3)N2C` [Compound 6, 5′-methyl-2-((7-methyl-[1,2,4]-triazolo[1,5-a]pyridin-6-yl)amino)-5′,7′-dihydrospiro[cyclonexane-1,8′-imidazo[1,2-e]purine]-4-one] gave a half-inhibitory concentration (IC50) of 4.8 nM.

The compound `Cc1cc2ncnn2cc1Nc1ncc2c(n1)N1C(=NCC13CCSCC3)N2C` [Compound 8, 5-methyl-N-(7-methyl-[1,2,4]triazolo[1,5-a]pyridin-6yl)-2′,3′,5,5′,6′,7-hexahydrospiro[imidazo[1,2-]purine-8,4′thiopyran]-2-amine] had an IC50 of 0.89 nM.

The compound `Cc1cc2ncnn2cc1Nc1ncc2c(n1)N1C(=NCC13CCS(=O)(=O)CC3)N2C` [Compound 9, 5-methyl-2-((7-methyl-[1,2,4]-triazolo[1,5-a]pyridin-6-yl)amino)-2′,3′,5,5′,6′,7-hexahydrospiro[imidazo[1,2-e]purine-8,4′-thiopyran]1′,1′-dioxide] registered a half-inhibitory concentration (IC50) of 21 nM.

For `COC1(C)CCC2(CC1)CN=C1N(C)c3cnc(Nc4cn5ncnc5cc4C)nc3N12` (stereo not shown) [Compound 15-1, 4-methoxy-4,5′-dimethyl-N-(7-methyl-[1,2,4]triazolo[1,5-a]pyridin-6H)-5′7′-dihydrospiro[cyclohexane-1,8′-imidazo[1,2-e]purin]-2′-amine], 1.37 nM corresponded to half-maximal inhibition (IC50).

Compound `Cc1cc2ncnn2cc1Nc1ncc2c(n1)N1C(=NCC1(C)CCO)N2C` (stereo not shown) [Compound 17, 2-(5,8-dimethyl-2-((7-methyl-[1,2,4]-triazolo[1,5-a]pyridin-6-yl)amino)-7,8-dihydro-5H-imidazo[1,2-e]purin-8-yl) ethan-1-ol] returned a half-inhibitory concentration (IC50) of 9.8 nM.

For the compound `Cc1cc2ncnn2cc1Nc1ncc2c(n1)N1C(=NCC13CCOC3)N2C` (stereo not shown) [Compound 18, 5′-methyl-N-(7-methyl-[1,2,4]-triazolo[1,5-a]pyridin-6-yl)-4,5,5′,7′-tetrahydro-2-H-spiro[furan-3, 8′-imidazo[1,2-e]purin]-2′-amine], half-maximal inhibition (IC50) required 1.4 nM.

Consider `Cc1cc2ncnn2cc1Nc1ncc2c(n1)N1C(=NCC13CCCOCC3)N2C` (stereo not shown) [Compound 19, 5methyl-N-(7-methyl-[1,2,4]triazolo[1,5-a]pyridin-6-yl)-5,7-dihydrospiro[imidazo[1,2-e]purine-8,4′-oxepan]-2-amine], for which inhibition was half-maximal at 1.6 nM (IC50).

`Cc1cc2ncnn2cc1Nc1ncc2c(n1)N1C(=NC[C@@]13CCCOCC3)N2C` [Compound 19-1] came in with an IC50 of 1.1 nM.

Regarding `Cc1cc2ncnn2cc1Nc1ncc2c(n1)N1C(=NC[C@]13CCCOCC3)N2C` [Compound 19-2], the IC50 is 1.7 nM.

Turning to `Cc1cc2ncnn2cc1Nc1ncc2c(n1)N1C(=NCC13CC[S+]([O-])CC3)N2C` (stereo not shown) [Compound 20, 5-methyl-2-((7-methyl-[1,5-a]pyridin-6-yl)amino)-2′,3′,5,5′,6′,7-hexanydrospiro[imidazo[1,2-e]purine-8,4′-thiopyran]-1′-oxide], the midpoint of inhibition, the IC50, lay at 18.7 nM.
